From patent US20200017495A1, “NOVEL HETEROCYCLIC COMPOUNDS AND THEIR USE IN PREVENTING OR TREATING BACTERIAL INFECTIONS” (priority 2017, published 2020)

Tested on: Enterobacter cloacae (ECL) isolates
Experiment: MIC of compounds alone and combined with antibacterials, broth microdilution (CLSI)
Type: cell-based
Outline: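 Log-phase isolates were inoculated at a final 5.10^5 CFU/mL in cation-adjusted Mueller-Hinton broth and incubated 16-20 h at 35° C in ambient air. MIC was the lowest concentration preventing visible growth; for combinations, the antibacterial MIC was read at each compound concentration.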

`C=CC1=C(C(=O)O)N2C(=O)[C@@H](NC(=O)/C(=N\OCC(=O)O)c3csc(N)n3)[C@H]2SC1` [FIX, Cefixime] was tested, and the “MIC ATB in combination” value (ECL NEM146383, AF2 @ 8 μg/mL) was >128 µg/mL, the “MIC ATB in combination” value (ECL NEM146383, AF3 @ 8 μg/mL) was 16 µg/mL and the “MIC ATB in combination” value (ECL NEM146383, CLA @ 4 μg/mL) was >128 µg/mL. The “MIC ATB in combination” value (ECL P99, AF2 @ 8 μg/mL) was 4 µg/mL, the “MIC ATB in combination” value (ECL P99, AF3 @ 8 μg/mL) was 8 µg/mL and the “MIC ATB in combination” value (ECL P99, CLA @ 4 μg/mL) was >128 µg/mL. For the same compound, the “MIC ATB in combination” value (ECL UFR12, AF2 @ 8 μg/mL) was “<=0.25 μg/mL”, the “MIC ATB in combination” value (ECL UFR12, AF3 @ 8 μg/mL) was “<=0.25 μg/mL” and the “MIC ATB in combination” value (ECL UFR12, CLA @ 4 μg/mL) was 8 µg/mL. For the same compound, the “MIC ATB in combination” value (ECL UFR13, AF2 @ 8 μg/mL) was 4 µg/mL, the “MIC ATB in combination” value (ECL UFR13, AF3 @ 8 μg/mL) was 2 µg/mL and the “MIC ATB in combination” value (ECL UFR13, CLA @ 4 μg/mL) was 128 µg/mL. For the same compound, the “MIC ATB in combination” value (ECL UFR14, AF2 @ 8 μg/mL) was 32 µg/mL, the “MIC ATB in combination” value (ECL UFR14, AF3 @ 8 μg/mL) was 32 µg/mL and the “MIC ATB in combination” value (ECL UFR14, CLA @ 4 μg/mL) was >128 µg/mL. The “MIC ATB in combination” value (ECL UFR38, AF2 @ 8 μg/mL) was <0.25 µg/mL, the “MIC ATB in combination” value (ECL UFR38, AF3 @ 8 μg/mL) was >128 µg/mL and the “MIC ATB in combination” value (ECL UFR38, CLA @ 4 μg/mL) was >128 µg/mL. For the same compound, the “MIC ATB in combination” value (ECL UFR51, AF2 @ 8 μg/mL) was <0.25 µg/mL, the “MIC ATB in combination” value (ECL UFR51, AF3 @ 8 μg/mL) was <0.25 µg/mL and the “MIC ATB in combination” value (ECL UFR51, CLA @ 4 μg/mL) was >128 µg/mL. For the same compound, the “MIC ATB in combination” value (ECL UFR60, AF2 @ 8 μg/mL) was 128 µg/mL, the “MIC ATB in combination” value (ECL UFR60, AF3 @ 8 μg/mL) was 8 µg/mL and the “MIC ATB in combination” value (ECL UFR60, CLA @ 4 μg/mL) was 128 µg/mL. The “MIC ATB in combination” value (ECL UFR70, AF2 @ 8 μg/mL) was “<=0.25 μg/mL”, the “MIC ATB in combination” value (ECL UFR70, AF3 @ 8 μg/mL) was <0.25 µg/mL and the “MIC ATB in combination” value (ECL UFR70, CLA @ 4 μg/mL) was >128 µg/mL. The “MIC ATB in combination” value (ECL UFR84, AF2 @ 8 μg/mL) was >128 µg/mL, the “MIC ATB in combination” value (ECL UFR84, AF3 @ 8 μg/mL) was 64 µg/mL and the “MIC ATB in combination” value (ECL UFR84, CLA @ 4 μg/mL) was >128 µg/mL. The “MIC ATB in combination” value (ECL UFR85, AF2 @ 8 μg/mL) was <0.25 µg/mL, the “MIC ATB in combination” value (ECL UFR85, AF3 @ 8 μg/mL) was 1 µg/mL and the “MIC ATB in combination” value (ECL UFR85, CLA @ 4 μg/mL) was >128 µg/mL. The “MIC ATB in combination” value (ECL UFR200, AF2 @ 8 μg/mL) was 1 µg/mL, the “MIC ATB in combination” value (ECL UFR200, AF3 @ 8 μg/mL) was 0.5 µg/mL and the “MIC ATB in combination” value (ECL UFR200, CLA @ 4 μg/mL) was 16 µg/mL. The MIC (strain ECL 2185D, genotype OXA-163) was >128 µg/mL, the MIC (strain ECL 190310, genotype AmpC) was >128 µg/mL and the MIC (strain ECL 190408, genotype TEM-1, CTX-M-15, OXA-1) was 512 µg/mL. The MIC (strain ECL 200138, genotype AmpC) was >128 µg/mL, the MIC (strain ECL 200322, genotype TEM-1, CTX-M-15, OXA-1) was >128 µg/mL and the MIC (strain ECL 260033, genotype AmpC) was >128 µg/mL. The MIC (strain ECL 260253, genotype TEM-1, KPC-3) was >128 µg/mL, the MIC (strain ECL 260323, genotype AmpC) was >128 µg/mL and the MIC (strain ECL 260508, genotype TEM-1, CTX-M-15) was >128 µg/mL. The MIC (strain ECL HAN, genotype OXA-35) was >128 µg/mL, the MIC (strain ECL NEM146383, genotype AmpC) was >128 µg/mL and the MIC (strain ECL P99, genotype AmpC) was >128 µg/mL. The MIC (strain ECL UFR12, genotype CTX-M-9, OXA-48) was 16 µg/mL, the MIC (strain ECL UFR13, genotype TEM-1, SHV-12, CTX-M-9, OXA-48) was >128 µg/mL and the MIC (strain ECL UFR14, genotype TEM-1, SHV-12, CTX-M-15, DHA-1, OXA-1, OXA-48) was >128 µg/mL. For the same compound, the MIC (strain ECL UFR38, genotype CTX-M-15, NDM-1) was >128 µg/mL, the MIC (strain ECL UFR51, genotype SHV-12, IMP-8) was >128 µg/mL and the MIC (strain ECL UFR60, genotype TEM-1, CTX-M-15, KPC-2) was >128 µg/mL. The MIC (strain ECL UFR70, genotype TEM-1, CTX-M-15, CMY-2, OXA-1, Porin loss) was >128 µg/mL, the MIC (strain ECL UFR84, genotype TEM-1, AmpC, OXA-1) was >128 µg/mL and the MIC (strain ECL UFR85, genotype TEM-1, CTX-M-15, AmpC) was >128 µg/mL. For the same compound, the MIC (strain ECL UFR192, genotype TEM-1, NDM-1, antibiotic alone) was >128 µg/mL, the “MIC ATB in combination” value (strain ECL UFR192, with AF2 @ 8 μg/mL) was >128 µg/mL and the “MIC ATB in combination” value (strain ECL UFR192, with AF3 @ 8 μg/mL) was >128 µg/mL. The “MIC ATB in combination” value (strain ECL UFR192, with CLA @ 4 μg/mL) was >128 µg/mL, the MIC (strain ECL UFR193, genotype TEM-1, CTX-M-15, OXA-1, NDM-1, RmtC, antibiotic alone) was >128 µg/mL and the “MIC ATB in combination” value (strain ECL UFR193, with AF2 @ 8 μg/mL) was >128 µg/mL. The “MIC ATB in combination” value (strain ECL UFR193, with AF3 @ 8 μg/mL) was “<=0.25 μg/mL”, the “MIC ATB in combination” value (strain ECL UFR193, with CLA @ 4 μg/mL) was >128 µg/mL and the MIC (strain ECL UFR194, genotype OXA-48) was 4 µg/mL. The “MIC ATB in combination” value (strain ECL UFR194, with AF2 @ 8 μg/mL) was “<=0.25 μg/mL” and the “MIC ATB in combination” value (strain ECL UFR194, with AF3 @ 8 μg/mL) was “<=0.25 μg/mL”.
